Measurements: patent publication EP3818828A1 (priority 2019, dated 2021)
Values after ≈ are worked out from the molar mass of the structure shown. Like-named read-outs stand apart in the source and are kept apart here.

Assays:
Type in all cases: cell-based
Phytophthora infestans [1] = settings: Phytophthora infestas; 1 mg/mL
[2] = tested on: Botryosphaeria berengeriana; assay: Ex vivo mycelial growth inhibition, growth rate method; settings: 1 mg/mL
Excerpt: (§1) 3-(3',4'-methylenedioxy phenyl)-N-n-propyl acrylamide (at a purity of 99%), 3-(3',4'-methylenedioxy phenyl)-piperidine acrylate (at a purity of 99%), the control agents, 96.5% of chlorothalonil technical (non-systemic broad-spectrum fungicide), 97.2% of carbendazim technical (systemic broad-spectrum fungicide), 97.0% of procymidone technical (systemic fungicide), 96.0% of dimethomorphtechnical ((E,Z)-4-[3-(4-chlorphenyl)3-(3,4-dimethoxy phenyl)acryloyl]morpholine, systemic fungicide), 97.0% of azoxystrobin technical (systemic broad-spectrum fungicide).
(§2) The inhibition of samples for testing on the mycelial growth of plant pathogenic fungi for testing is determined with a growth rate method. 3-(3',4'-methylenedioxy phenyl)-N-n-propyl acrylamide, 3-(3',4'-methylenedioxy phenyl)-piperidine acrylate and five control agents are dissolved with dimethyl sulfoxide (DMSO), then formulated at 5-7 concentrations of different gradients for test following the trial test results, with the same concentration of DMSO as the control solvent, each treatment in triplicate. Fungal cakes with a diameter of 4 mm are taken from the edge of the colony, inoculated into the center of a PDA plate containing different agents of different concentrations and the DMSO control, with one piece of fungal cake inoculated in each plate (with a diameter of […]), and incubated in a constant temperature incubator at a temperature of 22±1.5°C. 7 days later (10-20 days may be needed for some pathogenic fungi), the diameter of the colony is measured with a cross over method according to the mycelial growth profile of the control pathogenic fungi, then the inhibition rate of mycelial growth is calculated.
(§3) The computational formula is as below: the inhibition rate of mycelial growth (%) = [(the diameter of the control colony - the diameter of the treated colony)/the diameter of the control colony] × 100.
(§4) The inhibition results of each agent at a concentration of 1 mg/mL on the mycelial growth of plant pathogenic fungi are shown in Tables 1 and 2.

[3] = tested on: Botryosphaeriana berengeriana; assay: as above; settings: 1 mg/mL
Excerpt: as §1, §2, §3, §4

Botrytis cinerea [4] = assay: as above; settings: 1 mg/mL
Excerpt: as §1, §2, §3, §4

C. gossypii = assay: as above; settings: 1 mg/mL
Excerpt: as §1, §2, §3, §4

Colletotrichum capsici [5] = assay: as above; settings: 1 mg/mL
Excerpt: as §1, §2, §3, §4

Coniella diplodiella = assay: as above; settings: 1 mg/mL
Excerpt: as §1, §2, §3, §4

Exserohilum turcicum [6] = assay: as above; settings: 1 mg/mL
Excerpt: as §1, §2, §3, §4

F. oxysporum f. sp. lini = assay: as above; settings: 1 mg/mL
Excerpt: as §1, §2, §3, §4

[7] = tested on: F. oxysporum f. sp. vasinfectum; assay: as above; settings: 1 mg/mL
Excerpt: as §1, §2, §3, §4

F. verticillioide = assay: as above; settings: 1 mg/mL
Excerpt: as §1, §2, §3, §4

[8] = tested on: Gaeumannomyces graminis var. graminis and G. graminis var. tritici; assay: as above; settings: 1 mg/mL
Excerpt: as §1, §2, §3, §4

Mycosphaerlla melonis = assay: as above; settings: 1 mg/mL
Excerpt: as §1, §2, §3, §4

Phytophthora capsici = assay: as above; settings: Phytophthora capsici; 1 mg/mL
Excerpt: as §1, §2, §3, §4

Pythium aphanidermatum = assay: as above; settings: 1 mg/mL
Excerpt: as §1, §2, §3, §4

Rhizoctonia solani = assay: as above; settings: Rhizoctonia solani; 1 mg/mL
Excerpt: as §1, §2, §3, §4

Sclerotinia sclerotiorum [9] = assay: as above; settings: 1 mg/mL
Excerpt: as §1, §2, §3, §4

Thanatephorus cucumeris = assay: as above; settings: 1 mg/mL
Excerpt: as §1, §2, §3, §4

Valsa mali [10] = assay: as above; settings: 1 mg/mL
Excerpt: as §1, §2, §3, §4

Fusarium graminearum [11] = assay: microbe, parasite or virus in culture
F. graminearum [12] = assay: microbe, parasite or virus in culture
Pyricularia grisea = assay: microbe, parasite or virus in culture
Phytophthora infestans [13] = assay: microbe, parasite or virus in culture; settings: 1 mg/mL
Botrytis cinerea [14] = assay: Toxicity determination (EC50) on mycelial growth, growth rate method
Procedure: as §2
(§5) 3-(3',4'-methylenedioxy phenyl)-piperidine acrylate, the control agents 96.5% of chlorothalonil technical and 97.0% of procymidone technical. Agents for testing and the control agents chlorothalonil and procymidone are treated at 5-8 concentrations of different gradients on the basis of preliminary tests to ensure that the inhibition rates for treatments at all the concentrations are between 10% and 90%.
(§6) For specific determination methods, with reference to Embodiment 1. The concentration of active ingredients in the culture medium is used as the testing concentration to calculate the toxic regression equation (Y=bx+a) and the median inhibition concentration EC50, 95% confidence limit, and relative toxicity. Relative toxicity (compared to chlorothalonil) = EC50 of chlorothalonil / EC50 of 3-(3',4'-methylenedioxy phenyl)-piperidine acrylate, and relative toxicity (compared to procymidone) = EC50 of procymidone / EC50 of 3-(3',4'-methylenedioxy phenyl)-piperidine acrylate.

Colletotrichum capsici [15] = assay: as above
Procedure: as §2, §5, §6

Exserohilum turcicum [16] = assay: as above
Procedure: as §2, §5, §6

Sclerotinia sclerotiorum [17] = assay: as above
Procedure: as §2, §5, §6

Valsa mali [18] = assay: as above
Procedure: as §2, §5, §6

Fusarium graminearum [19] = assay: microbe, parasite or virus in culture; remark: listed apart in the source
F. graminearum [20] = assay: microbe, parasite or virus in culture; remark: listed apart in the source
Magnaporthe grisea = assay: microbe, parasite or virus in culture
Phytophthora infestans [21] = assay: microbe, parasite or virus in culture
[22] = EC50 of chlorothalonil / EC50 of agent
[23] = EC50 of procymidone / EC50 of agent
[24] = median inhibition concentration

In the case of `CC12CC1(C)C(=O)N(c1cc(Cl)cc(Cl)c1)C2=O` (centres unmarked) [Procymidone, procymidone], the “Average Diameter of the Colony” value (Phytophthora infestans [1]) was 0.80 cm, the “Average Diameter of the Colony” value [2] was 0.15 cm and the inhibition at 1000 µg/mL [2] was 97.8%. For the same compound, the “Average Diameter of the Colony” value [3] was 0.20 cm, the inhibition at 1000 µg/mL [3] was 96.5% and the “Average Diameter of the Colony” value (Botrytis cinerea [4]) was 1.74 cm. The inhibition at 1000 µg/mL (Botrytis cinerea [4]) was 76.8%, the “Average Diameter of the Colony” value (C. gossypii; C. gossypii) was 1.62 cm and the inhibition at 1000 µg/mL (C. gossypii; Colletotrichum gossypii, C. cossypii, read-out: Inhibition Rate) was 70%. For the same compound, the “Average Diameter of the Colony” value (Colletotrichum capsici [5]) was 1.19 cm, the inhibition at 1000 µg/mL (Colletotrichum capsici [5]; Colletotrichum truncatum) was 82.5% and the “Average Diameter of the Colony” value (Coniella diplodiella) was 0.06 cm. For the same compound, the inhibition at 1000 µg/mL (Coniella diplodiella) was 99.1%, the “Average Diameter of the Colony” value (Exserohilum turcicum [6]) was 0.24 cm and the inhibition at 1000 µg/mL (Exserohilum turcicum [6]) was 96.1%. The “Average Diameter of the Colony” value (F. oxysporum f. sp. lini) was 6.33 cm, the inhibition at 1000 µg/mL (F. oxysporum f. sp. lini; Fusarium oxysporum) was 29.7% and the “Average Diameter of the Colony” value [7] was 2.57 cm. For the same compound, the inhibition at 1000 µg/mL ([7]; Fusarium oxysporum) was 64.5%, the “Average Diameter of the Colony” value (F. verticillioide) was 2.57 cm and the inhibition at 1000 µg/mL (F. verticillioide) was 24%. The “Average Diameter of the Colony” value [8] was 2.16 cm, the inhibition at 1000 µg/mL [8] was 69.8% and the “Average Diameter of the Colony” value (Mycosphaerlla melonis) was 0.24 cm. The inhibition at 1000 µg/mL (Mycosphaerlla melonis) was 97.2%, the “Average Diameter of the Colony” value (Phytophthora capsici) was 5.10 cm and the inhibition at 1000 µg/mL (Phytophthora capsici) was 3.77%. The “Average Diameter of the Colony” value (Pythium aphanidermatum) was 6.20 cm, the inhibition at 1000 µg/mL (Pythium aphanidermatum) was 7.46% and the “Average Diameter of the Colony” value (Rhizoctonia solani) was 0.00 cm. The inhibition at 1000 µg/mL (Rhizoctonia solani) was 100%, the “Average Diameter of the Colony” value (Sclerotinia sclerotiorum [9]) was 0.00 cm and the inhibition at 1000 µg/mL (Sclerotinia sclerotiorum [9]) was 100%. The “Average Diameter of the Colony” value (Thanatephorus cucumeris) was 0.54 cm, the inhibition at 1000 µg/mL (Thanatephorus cucumeris) was 93.7% and the “Average Diameter of the Colony” value (Valsa mali [10]) was 0.83 cm. For the same compound, the inhibition at 1000 µg/mL (Valsa mali [10]; Cytospora mali) was 89%, the “Average Diameter of the Colony” value (Fusarium graminearum [11]; 1 mg/mL) was 2.26 cm and the inhibition at 1000 µg/mL (Fusarium graminearum [11]; read-out: Inhibition Rate) was 57.7%. The “Average Diameter of the Colony” value (F. graminearum [12]; F. graminearum, 1 mg/mL) was 3.57 cm, the inhibition at 1000 µg/mL (F. graminearum [12]; Fusarium graminearum, read-out: Inhibition Rate) was 58.5% and the “Average Diameter of the Colony” value (Pyricularia grisea; 1 mg/mL) was 4.63 cm. For the same compound, the inhibition at 1000 µg/mL (Pyricularia grisea; read-out: Inhibition Rate) was 48.6%, the “Average Diameter of the Colony” value (Phytophthora infestans [13]) was 0.00 cm and the “Relative Toxicity (Compared to Chlorothalonil)” value (Botrytis cinerea [14]; [22]) was 2.24. For the same compound, the “Relative Toxicity (Compared to Procymidone)” value (Botrytis cinerea [14]; [23]) was 1.00, the EC50 (Botrytis cinerea [14]; [24]) was 78.9 µg/mL (≈ 278 µM) and the EC50 (Colletotrichum capsici [15]; Colletotrichum truncatum, median inhibition concentration, read-out: EC50) was 518 µg/mL (≈ 1820 µM). The “Relative Toxicity (Compared to Chlorothalonil)” value (Colletotrichum capsici [15]; [22]) was 0.78, the “Relative Toxicity (Compared to Procymidone)” value (Colletotrichum capsici [15]; [23]) was 1.00 and the “Relative Toxicity (Compared to Chlorothalonil)” value (Exserohilum turcicum [16]; [22]) was 3.92. The “Relative Toxicity (Compared to Procymidone)” value (Exserohilum turcicum [16]; [23]) was 1.00, the EC50 (Exserohilum turcicum [16]; median inhibition concentration, read-out: EC50) was 105 µg/mL (≈ 369 µM) and the “Relative Toxicity (Compared to Chlorothalonil)” value (Sclerotinia sclerotiorum [17]; [22]) was 0.89. The “Relative Toxicity (Compared to Procymidone)” value (Sclerotinia sclerotiorum [17]; [23]) was 1.00, the EC50 (Sclerotinia sclerotiorum [17]; [24]) was 70.6 µg/mL (≈ 248 µM) and the “Relative Toxicity (Compared to Chlorothalonil)” value (Valsa mali [18]; [22]) was 0.98. For the same compound, the “Relative Toxicity (Compared to Procymidone)” value (Valsa mali [18]; [23]) was 1.00, the EC50 (Valsa mali [18]; [24]) was 427.3 µg/mL (≈ 1500 µM) and the “Relative Toxicity (Compared to Chlorothalonil)” value (Fusarium graminearum [19]; [22]) was 3.27. The “Relative Toxicity (Compared to Procymidone)” value (Fusarium graminearum [19]; [23]) was 1.00, the EC50 (Fusarium graminearum [19]; [24]) was 144 µg/mL (≈ 505 µM) and the “Relative Toxicity (Compared to Chlorothalonil)” value (F. graminearum [20]; [22]) was 0.27. The “Relative Toxicity (Compared to Procymidone)” value (F. graminearum [20]; [23]) was 1.00, the EC50 (F. graminearum [20]; Fusarium graminearum, median inhibition concentration) was 850 µg/mL (≈ 2990 µM) and the “Relative Toxicity (Compared to Chlorothalonil)” value (Magnaporthe grisea; [22]) was 1.42. For the same compound, the “Relative Toxicity (Compared to Procymidone)” value (Magnaporthe grisea; [23]) was 1.00, the EC50 (Magnaporthe grisea; Pyricularia oryzae, median inhibition concentration) was 308 µg/mL (≈ 1080 µM) and the “Relative Toxicity (Compared to Chlorothalonil)” value (Phytophthora infestans [21]; [22]) was 0.15. For the same compound, the “Relative Toxicity (Compared to Procymidone)” value (Phytophthora infestans [21]; [23]) was 1.00 and the EC50 (Phytophthora infestans [21]; [24]) was 778 µg/mL (≈ 2740 µM).
